Structures can show the parent of a compound that is named as a salt. Where two headings read alike, the source gives them in different places.
Tests used:
HepG2 cells [1] = conditions: cited from earlier work
rat primary hepatocytes [2] = assay: MMP assay in rat primary hepatocytes; conditions: for IC50: Rattus norvegicus, Hepatocyte, read-out: MMP assays IC50 (µM) Rat Hepatocytes
rat primary hepatocytes [3] = test system: rat primary hepatocytes
HepG2 cells [4] = assay: cells; conditions: Homo sapiens; for IC50: HepG2, read-out: MMP assays IC50 (µM) HepG2; for Emax: HepG2, read-out: MMP assays efficacy (%) HepG2
[5] = read-out: MMP assays IC50 (µM) qHTS-HepG2
[6] = read-out: MMP assays IC50 (µM), qHTS-HepG2

SMILES | MMP assays efficacy (%) qHTS-HepG2 (HepG2 cells [1]) [%] | IC50 (HepG2 cells [1]; [5]) [µM] | MMP assays IC50 (µM) Rat Hepatocytes (rat primary hepatocytes [2]) | MMP assays efficacy (%) Rat Hepatocytes (rat primary hepatocytes [3]) | IC50 (HepG2 cells [4]) [µM] | Emax (HepG2 cells [4]) [%] | IC50 (rat primary hepatocytes [2]) [µM] | IC50 (HepG2 cells [1]; [6]) [µM]
C[C@H]1O[C@@H](O[C@H]2[C@@H](O)C[C@H](O[C@H]3[C@@H](O)C[C@H](O[C@H]4CC[C@@]5(C)[C@H](CC[C@@H]6[C@@H]5C[C@@H](O)[C@]5(C)[C@@H](C7=CC(=O)OC7)CC[C@]65O)C4)O[C@@H]3C)O[C@@H]2C)C[C@H](O)[C@@H]1O [Digoxin] | -71±8 | 0.52 ± 0.09 | inactive | inactive | 0.13 | 105 | – | –
O=[N+]([O-])c1cc(C2CCCCC2)c(O)c([N+](=O)[O-])c1 [Dinex] | -88±10 | 0.28 ± 0.34 | – | -96±4% | 0.71 | 86 | 1.4 ± 0.6 | –
CCC(C)c1cc([N+](=O)[O-])cc([N+](=O)[O-])c1OC(=O)OC(C)C (centres unmarked) [Dinobuton] | -105±4 | 4.33 ± 1.24 | – | -115±54% | 7.94 | 101 | 5.74 ± 4.21 | –
NC(=O)Oc1ccc(Cc2ccccc2)cc1 [Diphenan] | -115±14 | 22.3 ± 4.67 | – | -51±6% | 19.9 | 112 | 84.2 ± 39.6 | –
CCOC(=O)C1(c2ccccc2)CCN(CCC(C#N)(c2ccccc2)c2ccccc2)CC1 [Diphenoxylate hydrochloride] | -56±8 | 20.7 ± 1.19 | – | -81±36% | 17.3 | 71 | 19.4 | –
CCN1/C(=C/C=C/C=C/c2sc3ccccc3[n+]2CC)Sc2ccccc21 [Dithiazanine iodide] | -85±6 | 0.1 ± 0.15 | – | -59±11% | 0.0275 | 88 | 0.98 ± 0.16 | –
O=S1(=O)OCC2C(CO1)C1(Cl)C(Cl)=C(Cl)C2(Cl)C1(Cl)Cl (centres unmarked) [Endosulfan sulfate] | -123±10 | 16 ± 2.05 | – | -80+6% | 17.8 | 103 | 25.8 ± 10.1 | –
ClC1=C(Cl)C2(Cl)C3C4CC(C5OC45)C3C1(Cl)C2(Cl)Cl (centres unmarked) [Endrin] | -75±20 | 23.5 ± 7.96 | inactive | inactive | 21.8 | 55 | – | –
C[C@]12CC[C@H]3C(=CCc4cc(O)ccc43)[C@@H]1CCC2=O [Equilin] | -97±4 | 24.3 ± 4.6 | – | -47±10% | 31.6 | 126 | 39.1 ± 15.5 | –
C=C(C)CN(CC)c1c([N+](=O)[O-])cc(C(F)(F)F)cc1[N+](=O)[O-] [Ethalfluralin] | -57±4 | 43.3 ± 17.6 | inactive | inactive | 44.7 | 68 | – | –
C#C[C@]1(OC(C)=O)CC[C@H]2[C@@H]3CCC4=C[C@@H](OC(C)=O)CC[C@@H]4[C@H]3CC[C@@]21C [Ethynodiol diacetate] | -62±16 | 15.4 ± 0.84 | inactive | inactive | 21.8 | 98 | – | –
CO[C@H]1C[C@@H]2CC[C@@H](C)[C@@](O)(O2)C(=O)C(=O)N2CCCC[C@H]2C(=O)O[C@H]([C@H](C)C[C@@H]2CC[C@@H](OCCO)[C@H](OC)C2)CC(=O)[C@H](C)/C=C(\C)[C@@H](O)[C@@H](OC)C(=O)[C@H](C)C[C@H](C)/C=C/C=C/C=C/1C [Everolimus] | -96±20 | 19.9 ± 2.83 | – | -38±9% | 27.5 | 92 | 13 ± 7.49 | –
CSC1=N[C@@](C)(c2ccccc2)C(=O)N1Nc1ccccc1 [Fenamidone] | -72±14 | 43.3 ± 17.1 | – | -56±23% | 19.9 | 59 | 42.8 ± 10.3 | –
OC(c1ccc(Cl)cc1)(c1cncnc1)c1ccccc1Cl (centres unmarked) [Fenarimol] | -77±13 | 42.6 ± 21.9 | – | -81±45% | 35.5 | 81 | 33.5 ± 2.73 | –
COP(=S)(OC)Oc1cc(Cl)c(Cl)cc1Cl [Fenchlorphos] | -97±9 | 13.6 ± 2.52 | – | -96±29% | 6.15 | 99 | 20.6 ± 1.68 | –
CC(NCCC(c1ccccc1)c1ccccc1)c1ccccc1 (centres unmarked) [Fendiline hydrochloride] | -79±12 | 10.3 ± 1.55 | inactive | inactive | 9.75 | 87 | – | –
CC1(C(=O)Nc2ccc(O)c(Cl)c2Cl)CCCCC1 [Fenhexamid] | -88±22 | 8.31 ± 1.15 | – | -62±26% | 17.8 | 98 | 36.7 ± 21.2 | –

SMILES | MMP assays efficacy (%) qHTS-HepG2 (HepG2 cells [1]) [%] | IC50 (HepG2 cells [1]; [5]) [µM] | MMP assays IC50 (µM) Rat Hepatocytes (rat primary hepatocytes [2]) | MMP assays efficacy (%) Rat Hepatocytes (rat primary hepatocytes [3]) | IC50 (HepG2 cells [4]) [µM] | Emax (HepG2 cells [4]) [%] | IC50 (rat primary hepatocytes [2]) [µM] | IC50 (HepG2 cells [1]; [6]) [µM]
O=C(O)Cc1sc(-c2ccccc2)nc1-c1ccc(Cl)cc1 [Fentiazac] | -91±18 | 27.4 ± 2.92 | – | -88±22% | 19.4 | 57 | 9.49 ± 7.98 | –
Oc1ccc(Cl)cc1Sc1cc(Cl)ccc1O [Fenticlor] | -107±14 | – | – | -88±15% | 5.48 | 101 | 13.9 ± 8.84 | 2.15 ± 0.36
CC(C)C(C(=O)OC(C#N)c1cccc(Oc2ccccc2)c1)c1ccc(Cl)cc1 (centres unmarked) [Fenvalerate] | -69±10 | – | inactive | inactive | 35.5 | 60 | – | 32.1
CCC(=O)c1c(O)cc(O)cc1O [Flopropione] | -111±23 | – | inactive | inactive | 17.3 | 103 | – | 18.8 ± 6.83
O=C(NC(=O)c1c(F)cccc1F)Nc1ccc(Cl)c(Oc2ncc(C(F)(F)F)cc2Cl)c1 [Fluazuron] | -66±7 | – | – | -64±17% | 12.3 | 83 | 9.83 ± 13.6 | 3.96 ± 2.31
Cc1cc(C(F)(C(F)(F)F)C(F)(F)F)ccc1NC(=O)c1cccc(I)c1C(=O)NC(C)(C)CS(C)(=O)=O [Flubendiamide] | -87±14 | – | – | -80±23% | 25.3 | 94 | 12.8 ± 8.15 | 18.7 ± 2.59
CC(C)[C@H](C(=O)OC(C#N)c1cccc(Oc2ccccc2)c1)c1ccc(OC(F)F)cc1 (some centres unmarked) [Flucythrinate] | -84±23 | – | – | -57±39% | 31.6 | 80 | 43.9 ± 17.4 | 35.7 ± 20
O=[N+]([O-])c1ccc(Oc2ccc(C(F)(F)F)cc2[N+](=O)[O-])cc1 [Fluorodifen] | -89±20 | – | – | -114±10% | 28.2 | 94 | 24.1 ± 15 | 27.3 ± 25.1
CO/N=C(/C1=NOCCO1)c1ccccc1Oc1ncnc(Oc2ccccc2Cl)c1F [Fluoxastrobin] | -81±29 | – | – | -105±24% | 11.2 | 72 | 37.9 ± 19.3 | 45.8 ± 15
O=C(Nc1ccccc1)Nc1ccnc(Cl)c1 [Forchlorfenuron] | -112±3 | – | – | -108±37% | 1 | 104 | 2.19 ± 1.97 | 0.45 ± 0.13
C[C@]12CC[C@@H]3c4ccc(O)cc4C[C@@H](CCCCCCCCC[S+]([O-])CCCC(F)(F)C(F)(F)F)[C@H]3[C@@H]1CC[C@@H]2O (some centres unmarked) [Fulvestrant] | -99±7 | – | – | -48±0% | 5.48 | 94 | 8.84 ± 12 | 5.86 ± 0.82
Cc1cc(O)c2c3c4c(cc(O)c13)C(C)(C)C(=O)c1c(O)cc(O)c(c1-4)C2=O [Geliomycin] | -120±11 | – | – | -101±18% | 0.19 | 94 | 0.55 ± 0.31 | 0.52 ± 0.04
O=c1c(-c2ccc(O)cc2)coc2cc(O)cc(O)c12 [Genistein] | -101±1 | – | – | -70±41% | 10 | 96 | 33.7 ± 19.5 | 6.34 ± 0.77
CN(C)c1ccc(C(=C2C=CC(=[N+](C)C)C=C2)c2ccc(N(C)C)cc2)cc1 [Gentian violet] | -92±4 | – | – | -70±14% | 0.35 | 92 | 1.34 ± 0.11 | 0.08 ± 0.04
ClC1=C(Cl)C2(Cl)C3C(Cl)C=CC3C1(Cl)C2(Cl)Cl (centres unmarked) [Heptachlor] | – | – | inactive | inactive | 31.6 | 87 | – | 39.4 ± 17.9
Oc1c(Cl)cc(Cl)c(Cl)c1Cc1c(O)c(Cl)cc(Cl)c1Cl [Hexachlorophene] | -101±7 | – | – | -103±31% | 0.63 | 115 | 1 ± 0.74 | 0.7 ± 0.46

— article PMC6112376, “Comprehensive Analyses and Prioritization of Tox21 10K Chemicals Affecting Mitochondrial Function by in-Depth Mechanistic Studies” (Environmental Health Perspectives, 2018)
